# According to patent publication US9957251B2 (Takeda Pharmaceutical Company Limited, priority 2014, dated 2018):
# Columns and labels:
# CDK19 (CDC2L6/CycC) = target: T1, CDK19 (CDC2L6/CycC) (Homo sapiens, UniProt Q9BWU1); assay: CDK19 inhibitory activity (TR-FRET, Kinase Tracer-236 displacement); format: binding; details: 1 μM of the test compound; read-out: Percent inhibition of CDK19 activity (%)
# T1 construct: purchased Carna Biosciences
# Method in brief: (§1)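 Binding assay measuring displacement of Kinase Tracer-236 (60 nM in the added mix) by compound, using Eu-cryptate anti-GST antibody with CDK8/CycC (84 ng/mL) or CDC2L6/CycC (87 ng/mL) solutions. After 1 h at room temperature, TR-FRET read at 615 and 665 nm (excitation 320 nm).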
# [1] = system: human multiple myeloma RPMI8226 cells; assay: Inhibitory activity against human multiple myeloma RPMI8226 cell growth (CellTiter-Glo); format: cell-based; details: Homo sapiens, RPMI-8226, 192 h, 1 μM of the test compound, cultured for 8 days; read-out: Percent inhibition of RPMI8226 cell growth (%)
# Method in brief: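 RPMI8226 cells (300/well) cultured 1 day at 37 °C, 5% CO2, then given compound at 1 μM for 8 days. ATP luminescence (CellTiter-Glo) read; percent inhibition relative to 0.1% DMSO wells.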
# CDK8/CycC = target: T2, CDK8/CycC (Homo sapiens, UniProt P49336); assay: CDK8 inhibitory activity (TR-FRET, Kinase Tracer-236 displacement); format: binding; details: 1 μM of the test compound; read-out: Percent inhibition of CDK8 activity (%)
# T2 construct: purchased Carna Biosciences
# Method in brief: as §1
# T1 sequence (Q9BWU1 whole entry): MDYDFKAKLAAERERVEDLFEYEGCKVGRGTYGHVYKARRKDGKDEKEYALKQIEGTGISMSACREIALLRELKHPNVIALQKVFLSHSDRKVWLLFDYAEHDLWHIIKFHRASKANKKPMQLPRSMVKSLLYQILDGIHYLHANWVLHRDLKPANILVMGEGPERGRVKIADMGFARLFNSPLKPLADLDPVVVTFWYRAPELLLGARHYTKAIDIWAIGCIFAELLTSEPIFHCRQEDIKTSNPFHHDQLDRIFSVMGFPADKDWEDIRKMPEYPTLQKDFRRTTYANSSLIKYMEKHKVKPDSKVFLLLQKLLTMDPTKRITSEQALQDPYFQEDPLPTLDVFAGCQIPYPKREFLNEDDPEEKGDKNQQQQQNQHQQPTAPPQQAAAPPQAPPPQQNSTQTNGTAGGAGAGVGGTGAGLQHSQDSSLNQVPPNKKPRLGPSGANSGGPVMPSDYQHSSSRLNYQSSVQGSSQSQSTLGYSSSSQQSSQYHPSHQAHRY
# T1 sequence (P24863 whole entry partner): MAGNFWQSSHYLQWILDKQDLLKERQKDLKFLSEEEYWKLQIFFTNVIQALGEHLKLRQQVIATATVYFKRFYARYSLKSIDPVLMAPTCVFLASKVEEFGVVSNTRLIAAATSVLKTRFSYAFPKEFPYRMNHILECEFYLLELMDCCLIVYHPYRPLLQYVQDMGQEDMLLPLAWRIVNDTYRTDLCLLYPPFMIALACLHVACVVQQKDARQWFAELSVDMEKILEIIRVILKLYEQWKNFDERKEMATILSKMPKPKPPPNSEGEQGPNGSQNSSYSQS
# T2 sequence (P49336 whole entry): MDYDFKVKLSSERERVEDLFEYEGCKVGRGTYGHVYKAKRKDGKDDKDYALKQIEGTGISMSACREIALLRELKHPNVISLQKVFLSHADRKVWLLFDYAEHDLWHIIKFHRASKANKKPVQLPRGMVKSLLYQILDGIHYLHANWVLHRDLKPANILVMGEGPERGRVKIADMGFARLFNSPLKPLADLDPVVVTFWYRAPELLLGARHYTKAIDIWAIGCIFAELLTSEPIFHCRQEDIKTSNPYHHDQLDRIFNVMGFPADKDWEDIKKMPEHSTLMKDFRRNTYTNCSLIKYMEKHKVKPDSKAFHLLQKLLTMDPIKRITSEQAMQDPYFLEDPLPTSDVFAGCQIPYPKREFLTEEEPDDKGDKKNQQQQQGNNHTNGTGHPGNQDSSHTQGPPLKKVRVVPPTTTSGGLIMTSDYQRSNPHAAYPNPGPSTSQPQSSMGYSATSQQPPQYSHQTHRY
# T2 sequence (P24863 whole entry partner): as the sequence (P24863 whole entry partner) above
inhibition at 1 µM (CDK19 (CDC2L6/CycC)),inhibition at 1 µM (CDK8/CycC),Compound,inhibition at 1 µM [1]
95%,92%,"Cn1cc(-c2ccncc2/C=C/C(=O)Nc2ccc(CC#N)cc2)cn1 [Example 284, (2E)-N-(4-(cyanomethyl)phenyl)-3-(4-(1-methyl-1H-pyrazol-4-yl)pyridin-3-yl)acrylamide]",57%
101%,99%,"O=C(/C=C/c1cnccc1-c1cnn(CC2(F)CC2)c1)Nc1ccc(CN2CCOCC2)cc1 [Example 288, (2E)-3-(4-(1-((1-Fluorocyclopropyl)methyl)-1H-pyrazol-4-yl)pyridin-3-yl)-N-(4-(morpholin-4-ylmethyl)phenyl)acrylamide]",57%
89%,95%,O=C(/C=C/c1cnccc1-c1cnn(C2CC2)c1)Nc1ccc(C2CC2)cc1 [Example 290],53%
93%,97%,"O=C(/C=C/c1cnccc1-c1cnn(C2CC2)c1)Nc1ccc(COC(F)F)cc1 [Example 292, (2E)-3-(4-(1-Cyclopropyl-1H-pyrazol-4-yl)pyridin-3-yl)-N-(4-((difluoromethoxy)methyl)phenyl)acrylamide]",52%
95%,102%,"CC(C)(F)Cc1ccc(NC(=O)/C=C/c2cnccc2-c2cnn(C3CC3)c2)cc1 [Example 293, (2E)-3-(4-(1-cyclopropyl-1H-pyrazol-4-yl)pyridin-3-yl)-N-(4-(2-fluoro-2-methylpropyl)phenyl)acrylamide]",61%
97%,103%,"COCCn1cnc2ccc(-c3ccncc3/C=C/C(=O)Nc3ccc(CN4CCOCC4)cc3)cc21 [Example 295, (2E)-3-(4-(1-(2-methoxyethyl)-1H-benzimidazol-6-yl)pyridin-3-yl)-N-(4-(morpholin-4-ylmethyl)phenyl)acrylamide]",62%
97%,100%,"Cc1ccc(NC(=O)/C=C/c2cnccc2-c2cn[nH]c2)c(F)c1 [Example 296, (2E)-N-(2-fluoro-4-methylphenyl)-3-(4-(1H-pyrazol-4-yl)pyridin-3-yl)acrylamide]",59%
84%,85%,"Cn1cnc2ccc(-c3ccncc3/C=C/C(=O)Nc3ccc4c(ccn4CC(F)(F)F)c3)cc21 [Example 298, (2E)-3-(4-(1-methyl-1H-benzimidazol-6-yl)pyridin-3-yl)-N-(1-(2,2,2-trifluoroethyl)-1H-indol-5-yl)acrylamide]",63%
94%,97%,"O=C(/C=C/c1cnccc1-c1cnn(C2CC2)c1)Nc1ccc2c(c1)CN(CC(F)(F)C(F)(F)F)CC2 [Example 300, (2E)-3-(4-(1-cyclopropyl-1H-pyrazol-4-yl)pyridin-3-yl)-N-(2-(2,2,3,3,3-pentafluoropropyl)-1,2,3,4-tetrahydroisoquinolin-7-yl)acrylamide]",57%
98%,110%,"O=C(/C=C/c1cnccc1-c1cnn(C2CC2)c1)Nc1ccc(CN2CC3(COC3)C2)cc1 [Example 308, (2E)-3-(4-(1-cyclopropyl-1H-pyrazol-4-yl)pyridin-3-yl)-N-(4-(2-oxa-6-azaspiro [3.3]hept-6-ylmethyl)phenyl)acrylamide]",56%
98%,103%,"Cc1noc(C)c1-c1ccc(NC(=O)/C=C/c2cnccc2-c2cnn(C3CC3)c2)c(F)c1 [Example 311, (2E)-3-(4-(1-cyclopropyl-1H-pyrazol-4-yl)pyridin-3-yl)-N-(4-(3,5-dimethyl-1,2-oxazol-4-yl)-2-fluorophenyl)acrylamide]",58%
98%,103%,"O=C(/C=C/c1cnccc1-c1cnn(C2CC2)c1)Nc1ccc2c(c1)CCN(CC(F)(F)F)C2 [Example 316, (2E)-3-(4-(1-Cyclopropyl-1H-pyrazol-4-yl)pyridin-3-yl)-N-(2-(2,2,2-trifluoroethyl)-1,2,3,4-tetrahydroisoquinolin-6-yl)acrylamide]",49%
101%,103%,"O=C(/C=C/c1cnccc1-c1cnn(C2CC2)c1)Nc1ccc2c(c1)CN(CC(F)(F)F)C2 [Example 319, (2E)-3-(4-(1-Cyclopropyl-1H-pyrazol-4-yl)pyridin-3-yl)-N-(2-(2,2,2-trifluoroethyl)-2,3-dihydro-1H-isoindol-5-yl)acrylamide]",47%
99%,101%,"COC1CN(Cc2ccc(NC(=O)/C=C/c3cnccc3-c3cnn(C4CC4)c3)cc2)C1 [Example 321, (2E)-3-(4-(1-cyclopropyl-1H-pyrazol-4-yl)pyridin-3-yl)-N-(4-((3-methoxyazetidin-1-yl)methyl)phenyl)acrylamide]",59%
97%,102%,"CC1CN(Cc2ccc(NC(=O)/C=C/c3cnccc3-c3cnn(C4CC4)c3)cc2)C1 [Example 322, (2E)-3-(4-(1-cyclopropyl-1H-pyrazol-4-yl)pyridin-3-yl)-N-(4-((3-methylazetidin-1-yl)methyl)phenyl)acrylamide]",55%
104%,106%,"Cn1cc(-c2c(F)cncc2/C=C/C(=O)Nc2ccc3c(c2)CN(CC(F)(F)F)C3)cn1 [Example 327, (2E)-3-(5-Fluoro-4-(1-methyl-1H-pyrazol-4-yl)pyridin-3-yl)-N-(2-(2,2,2-trifluoroethyl)-2,3-dihydro-1H-isoindol-5-yl)acrylamide]",56%
96%,101%,"O=C(/C=C/c1cnccc1-c1cnn(C2CC2)c1)Nc1ccc(COCC(F)(F)F)cc1F [Example 330, (2E)-3-(4-(1-Cyclopropyl-1H-pyrazol-4-yl)pyridin-3-yl)-N-(2-fluoro-4-((2,2,2-trifluoroethoxy)methyl)phenyl)acrylamide]",53%
98%,103%,"O=C(/C=C/c1cncc(F)c1-c1cnn(C2CC2)c1)Nc1ccc2c(c1)OCCO2 [Example 331, (2E)-3-(4-(1-cyclopropyl-1H-pyrazol-4-yl)-5-fluoropyridin-3-yl)-N-(2,3-dihydro-1,4-benzodioxin-6-yl)acrylamide]",65%
99%,102%,"CC(C)(O)Cc1ccc(NC(=O)/C=C/c2cncc(F)c2-c2cnn(C3CC3)c2)c(F)c1 [Example 332, (2E)-3-(4-(1-Cyclopropyl-1H-pyrazol-4-yl)-5-fluoropyridin-3-yl)-N-(2-fluoro-4-(2-hydroxy-2-methylpropyl)phenyl)acrylamide]",60%
96%,102%,"O=C(/C=C/c1cnccc1-c1cnn(C2CC2)c1)Nc1ccc2c(c1)CN(CC(F)(F)CO)C2 [Example 340, (2E)-3-(4-(1-cyclopropyl-1H-pyrazol-4-yl)pyridin-3-yl)-N-(2-(2,2-difluoro-3-hydroxypropyl)-2,3-dihydro-1H-isoindol-5-yl)acrylamide]",65%
94%,105%,"Cn1cc(-c2ccncc2/C=C/C(=O)Nc2ccc3c(c2)CN(CC(F)F)C3)cn1 [Example 342, (2E)-N-(2-(2,2-difluoroethyl)-2,3-dihydro-1H-isoindol-5-yl)-3-(4-(1-methyl-1H-pyrazol-4-yl)pyridin-3-yl)acrylamide]",63%
96%,103%,"COC1CN(Cc2ccc(NC(=O)/C=C/c3cncc(F)c3-c3cnn(C4CC4)c3)c(F)c2)C1 [Example 343, (2E)-3-(4-(1-Cyclopropyl-1H-pyrazol-4-yl)-5-fluoropyridin-3-yl)-N-(2-fluoro-4-((3-methoxyazetidin-1-yl)methyl)phenyl)acrylamide]",63%
100%,101%,"COC1CN(Cc2ccc(NC(=O)/C=C/c3cncc(F)c3-c3cnn(C4CC4)c3)cc2)C1 [Example 345, (2E)-3-(4-(1-Cyclopropyl-1H-pyrazol-4-yl)-5-fluoropyridin-3-yl)-N-(4-((3-methoxyazetidin-1-yl)methyl)phenyl)acrylamide]",63%
101%,99%,"CC(C)(F)Cc1ccc(NC(=O)/C=C/c2cncc(F)c2-c2cnn(C3CC3)c2)cc1 [Example 348, (2E)-3-(4-(1-Cyclopropyl-1H-pyrazol-4-yl)-5-fluoropyridin-3-yl)-N-(4-(2-fluoro-2-methylpropyl)phenyl)acrylamide]",62%
100%,106%,"Cn1cc(-c2c(F)cncc2/C=C/C(=O)Nc2ccc3c(c2)CN(CC(C)(F)F)C3)cn1 [Example 351, (2E)-N-(2-(2,2-difluoropropyl)-2,3-dihydro-1H-isoindol-5-yl)-3-(5-fluoro-4-(1-methyl-1H-pyrazol-4-yl)pyridin-3-yl)acrylamide]",63%

Compound,inhibition at 1 µM (CDK19 (CDC2L6/CycC)),inhibition at 1 µM (CDK8/CycC),inhibition at 1 µM [1]
"O=C(/C=C/c1cncc(F)c1-c1cnn(C2CC2)c1)Nc1ccc(CN2CC3CC(C2)O3)cc1 [Example 336, (2E)-3-(4-(1-Cyclopropyl-1H-pyrazol-4-yl)-5-fluoropyridin-3-yl)-N-(4-(6-oxa-3-azabicyclo[3.1.1]hept-3-ylmethyl)phenyl)acrylamide]",101%,102%,59%
